The source of these data is patent US20070142392A1, “Uses of rifamycins” (ActivBiotics, Inc., priority 2005, published 2007).

What all share (assay type): cell-based
In one experiment the test system is H. flu.
The subject of the next experiment is E. faecalis. Kind of experiment: MIC values, E. faecalis (Tables 1-4).
The test system of a further experiment is S. aureus. Kind of experiment: MIC values, S. aureus (Tables 1-4).
For a further experiment, the system named is S. pneumo. Kind of experiment: MIC values, S. pneumo. (Tables 1-4).
In the next experiment the test system is E. coli. Kind of experiment: MIC values, E. coli (Tables 1-4).

Converted amounts (≈) assume the structure as drawn.

For `CCCC(=O)NC1CCN(c2cc(O)c3nc4c5c6c7c(C)c(O)c5c(=O)c(c-4oc3c2)NC(=O)/C(C)=C\C=C\[C@H](C)[C@H](O)[C@@H](C)[C@@H](O)[C@@H](C)[C@H](O)[C@H](C)[C@@H](OC)/C=C/O[C@@](C)(O7)C6=O)CC1` [Compound 36], the “MIC H. flu” value against H. flu turned out to be 250 ng/mL (≈ 270 nM). Further, in the experiment on E. faecalis, the “MIC E. faecalis” value was 2000 ng/mL (≈ 2160 nM). In the experiment on S. aureus, the “MIC S. aureus” value worked out at 4 ng/mL (≈ 4.31 nM). For the same compound, the “MIC S. pneumo.” value in the experiment with S. pneumo. worked out at 0.03 ng/mL (≈ 0.0324 nM). In the experiment with E. coli, the “MIC E. coli” value is greater than 8000 ng/mL.
As to `CCNC(=O)NC1CCN(c2cc(O)c3nc4c5c6c7c(C)c(O)c5c(=O)c(c-4oc3c2)NC(=O)/C(C)=C\C=C\[C@H](C)[C@H](O)[C@@H](C)[C@@H](O)[C@@H](C)[C@H](O)[C@H](C)[C@@H](OC)/C=C/O[C@@](C)(O7)C6=O)CC1` [Compound 37], the “MIC H. flu” value in the experiment on H. flu came to 250 ng/mL (≈ 269 nM). In addition, the “MIC E. faecalis” value against E. faecalis is 2000 ng/mL (≈ 2160 nM). Moreover, in the experiment with S. aureus, the “MIC S. aureus” value was found to be 30 ng/mL (≈ 32.3 nM). For the same compound, the “MIC S. pneumo.” value with S. pneumo. came to 4 ng/mL (≈ 4.31 nM). Moreover, the “MIC E. coli” value against E. coli is greater than 8000 ng/mL.
The like results for `CO[C@H]1/C=C/O[C@@]2(C)Oc3c(C)c(O)c4c(=O)c(c5oc6cc(N7CCC(NS(=O)(=O)C(F)(F)F)CC7)cc(O)c6nc-5c4c3C2=O)NC(=O)/C(C)=C\C=C\[C@H](C)[C@H](O)[C@@H](C)[C@@H](O)[C@@H](C)[C@H](O)[C@@H]1C` [Compound 38] were, in that order, 250 ng/mL (≈ 253 nM), 8000 ng/mL (≈ 8090 nM), 120 ng/mL (≈ 121 nM), 15 ng/mL (≈ 15.2 nM) and greater than 8000 ng/mL.
The corresponding values for `CO[C@H]1/C=C/O[C@@]2(C)Oc3c(C)c(O)c4c(=O)c(c5oc6cc(N7CCC(N)CC7)cc(O)c6nc-5c4c3C2=O)NC(=O)/C(C)=C\C=C\[C@H](C)[C@H](O)[C@@H](C)[C@@H](O)[C@@H](C)[C@H](O)[C@@H]1C` [Compound 39] are 250 ng/mL (≈ 292 nM), 2000 ng/mL (≈ 2330 nM), 30 ng/mL (≈ 35 nM), 1 ng/mL (≈ 1.17 nM) and greater than 8000 ng/mL.
The like results for `CCOC(=O)N1CCCC2CN(c3cc(O)c4nc5c6c7c8c(C)c(O)c6c(=O)c(c-5oc4c3)NC(=O)C(C)=CC=CC(C)C(O)C(C)C(O)C(C)C(OC(C)=O)C(C)C(OC)C=COC(C)(O8)C7=O)CC21` (stereo not shown) [Compound 40] were, in that order, 500 ng/mL (≈ 501 nM), 1000 ng/mL (≈ 1000 nM), 60 ng/mL (≈ 60.2 nM), 8 ng/mL (≈ 8.02 nM) and greater than 8000 ng/mL.
For the compound `COCCOC(=O)NC1CCN(c2cc(O)c3nc4c5c6c7c(C)c(O)c5c(=O)c(c-4oc3c2)NC(=O)/C(C)=C\C=C\[C@H](C)[C@H](O)[C@@H](C)[C@@H](O)[C@@H](C)[C@H](OC(C)=O)[C@H](C)[C@@H](OC)/C=C/O[C@@](C)(O7)C6=O)CC1` [Compound 41], the “MIC H. flu” value in the experiment with H. flu was 2000 ng/mL (≈ 2000 nM). In addition, the “MIC E. faecalis” value in the experiment with E. faecalis was greater than 8000 ng/mL. Further, the “MIC S. aureus” value against S. aureus was found to be 250 ng/mL (≈ 250 nM). In addition, the “MIC S. pneumo.” value with S. pneumo. amounted to 0.5 ng/mL (≈ 0.499 nM). Also, in the experiment with E. coli, the “MIC E. coli” value is greater than 8000 ng/mL.
On to `CCOC(=O)N1CCCC2CN(c3cc(O)c4nc5c6c7c8c(C)c(O)c6c(=O)c(c-5oc4c3)NC(=O)C(C)=CC=CC(C)C(O)C(C)C(O)C(C)C(O)C(C)C(OC)C=COC(C)(O8)C7=O)CC21` (stereo not shown) [Compound 42], for which the “MIC H. flu” value against H. flu amounted to 500 ng/mL (≈ 524 nM). In addition, the “MIC E. faecalis” value in the experiment with E. faecalis turned out to be 2000 ng/mL (≈ 2090 nM). Moreover, the “MIC S. aureus” value against S. aureus came to 8 ng/mL (≈ 8.38 nM). The “MIC S. pneumo.” value with S. pneumo. turned out to be 0.12 ng/mL (≈ 0.126 nM). Also, the “MIC E. coli” value in the experiment on E. coli was found to be 8000 ng/mL (≈ 8380 nM).
In the case of `CO[C@H]1/C=C/O[C@@]2(C)Oc3c(C)c(O)c4c(=O)c(c5oc6cc(N7CCC(NC(C)=O)CC7)cc(O)c6nc-5c4c3C2=O)NC(=O)/C(C)=C\C=C\[C@H](C)[C@H](O)[C@@H](C)[C@@H](O)[C@@H](C)[C@H](O)[C@@H]1C` [Compound 43], the “MIC H. flu” value with H. flu turned out to be 500 ng/mL (≈ 556 nM). In the experiment on E. faecalis, the “MIC E. faecalis” value came out at 2000 ng/mL (≈ 2220 nM). The “MIC S. aureus” value in the experiment on S. aureus turned out to be 30 ng/mL (≈ 33.4 nM). Besides, the “MIC S. pneumo.” value against S. pneumo. worked out at 2 ng/mL (≈ 2.22 nM). The “MIC E. coli” value against E. coli is greater than 8000 ng/mL.
As to `CO[C@H]1/C=C/O[C@@]2(C)Oc3c(C)c(O)c4c(=O)c(c5oc6cc(N7CCC(NC(C)=O)CC7)cc(O)c6nc-5c4c3C2=O)NC(=O)/C(C)=C\C=C\[C@H](C)[C@H](O)[C@@H](C)[C@@H](O)[C@@H](C)[C@H](OC(C)=O)[C@@H]1C` [Compound 44], the “MIC H. flu” value with H. flu is 250 ng/mL (≈ 266 nM). Further, in the experiment on E. faecalis, the “MIC E. faecalis” value amounted to 2000 ng/mL (≈ 2130 nM). Also, the “MIC S. aureus” value against S. aureus was 60 ng/mL (≈ 63.8 nM). Besides, in the experiment with S. pneumo., the “MIC S. pneumo.” value stood at 8 ng/mL (≈ 8.5 nM). The “MIC E. coli” value against E. coli is greater than 8000 ng/mL.
The like results for `CO[C@H]1/C=C/O[C@@]2(C)Oc3c(C)c(O)c4c(=O)c(c5oc6cc(N7CCC(NC(=O)SC)CC7)cc(O)c6nc-5c4c3C2=O)NC(=O)/C(C)=C\C=C\[C@H](C)[C@H](O)[C@@H](C)[C@@H](O)[C@@H](C)[C@H](OC(C)=O)[C@@H]1C` [Compound 45] were, in that order, 500 ng/mL (≈ 514 nM), 4000 ng/mL (≈ 4110 nM), 15 ng/mL (≈ 15.4 nM), 1 ng/mL (≈ 1.03 nM) and 8000 ng/mL (≈ 8220 nM).
For `COC1C=COC2(C)Oc3c(C)c(O)c4c(=O)c(c5oc6cc(N7CC8CCCN(C(C)=O)C8C7)cc(O)c6nc-5c4c3C2=O)NC(=O)C(C)=CC=CC(C)C(O)C(C)C(O)C(C)C(O)C1C` (stereo not shown) [Compound 46], in the experiment with H. flu, the “MIC H. flu” value was found to be 500 ng/mL (≈ 541 nM). The “MIC E. faecalis” value in the experiment on E. faecalis was 2000 ng/mL (≈ 2160 nM). Besides, the “MIC S. aureus” value in the experiment with S. aureus came to 4 ng/mL (≈ 4.32 nM). Also, in the experiment on S. pneumo., the “MIC S. pneumo.” value was 0.06 ng/mL (≈ 0.0649 nM). The “MIC E. coli” value against E. coli is greater than 8000 ng/mL.
The corresponding values for `COC1C=COC2(C)Oc3c(C)c(O)c4c(=O)c(c5oc6cc(N7CC8CCCN(C(C)=O)C8C7)cc(O)c6nc-5c4c3C2=O)NC(=O)C(C)=CC=CC(C)C(O)C(C)C(O)C(C)C(OC(C)=O)C1C` (stereo not shown) [Compound 47] are 250 ng/mL (≈ 259 nM), 1000 ng/mL (≈ 1030 nM), 8 ng/mL (≈ 8.27 nM), 2 ng/mL (≈ 2.07 nM) and greater than 8000 ng/mL.
The corresponding values for `CO[C@H]1/C=C/O[C@@]2(C)Oc3c(C)c(O)c4c(=O)c(c5oc6cc(N7CCC(NC(=O)OC(C)(C)C)CC7)cc(O)c6nc-5c4c3C2=O)NC(=O)/C(C)=C\C=C\[C@H](C)[C@H](O)[C@@H](C)[C@@H](O)[C@@H](C)[C@H](OC(C)=O)[C@@H]1C` [Compound 48] are 1000 ng/mL (≈ 1000 nM), 2000 ng/mL (≈ 2000 nM), 8 ng/mL (≈ 8.01 nM), 0.25 ng/mL (≈ 0.25 nM) and greater than 8000 ng/mL.
For `CO[C@H]1/C=C/O[C@@]2(C)Oc3c(C)c(O)c4c(=O)c(c5oc6cc(N7CCC(NC(=O)N8CCC(NC(=O)SC)CC8)CC7)cc(O)c6nc-5c4c3C2=O)NC(=O)/C(C)=C\C=C\[C@H](C)[C@H](O)[C@@H](C)[C@@H](O)[C@@H](C)[C@H](OC(C)=O)[C@@H]1C` [Compound 49], the “MIC H. flu” value in the experiment with H. flu was 2000 ng/mL (≈ 1820 nM). Besides, the “MIC E. faecalis” value against E. faecalis came to 8000 ng/mL (≈ 7280 nM). In the experiment on S. aureus, the “MIC S. aureus” value was 60 ng/mL (≈ 54.6 nM). Moreover, the “MIC S. pneumo.” value in the experiment on S. pneumo. was found to be 0.5 ng/mL (≈ 0.455 nM). In addition, the “MIC E. coli” value against E. coli is greater than 8000 ng/mL.
